This test relates to Somatic embryos of Loblolly pine, genotypes C and D. The test is described as follows: Germination rate, yield, germinants/ml, root and hypocotyl length, genotypes C and D (Example 4). In kind it is cell-based, Loblolly pine (Pinus taeda). On the procedure: Methods: Somatic embryos of Loblolly pine, genotypes C and D, were cultured as described in EXAMPLE 1 up to incubation in the maintenance media. After incubation in maintenance media using the methods described in EXAMPLE 1, advanced early stage somatic embryos were plated on semi-solid development medium BM3 (with 25 ppm ABA, 1% glucose and 2.5% maltose) at 25 embryos per plate, 15 plates per genotype. Specifically, at five weeks after plating, the media for 10 treatment plates per genotype were replaced with modified development media BM3 containing 5 ppm ABA instead of 25 ppm ABA. […]
After development, the embryos were transferred to stratification medium BM4, and germinated on medium BM5, as described in EXAMPLE 1. After 6 weeks incubation on germination medium, the embryos were assessed for germination rate, root length, hypocotyls length, and epicotyl length. […]
Plate yield was determined during singulation at eight weeks by counting the number of embryos present. […]
Data for germination rate was analyzed with a generalized linear model with a logit link. Yield, germinants/ml, root length, and hypocotyl length data were analyzed with a mixed linear model. […] When variance among all ten treatments was detected, the response means for the trehalose treatments only were compared using Fisher's LSD for multiple comparisons.

SMILES strings stand for the structures.

`OC[C@H]1O[C@H](O[C@H]2O[C@H](CO)[C@@H](O)[C@H](O)[C@H]2O)[C@H](O)[C@@H](O)[C@@H]1O` [trehalose, α-D-glucopyranosyl-[1,1]-α-D-glucopyranoside]: the “Hypocotyl Length LS mean” value (combined genotypes C and D) is given as “positive effect on the hypocotyl length”. The “Root Length genotype C mean” value (genotype C) is on record as “induces greater root length development”.

Values taken from US20090087909A1, “Use of Trehalose in Conifer Somatic Embryogenesis to Increase Germination Vigor” (Weyerhaeuser Company, priority 2007, published 2009).
